Source: PMC4066437, “Oxidation of cellular amino acid pools leads to cytotoxic mistranslation of the genetic code” (eLife, 2014)

Target: T1, E. coli TyrRS (Escherichia coli, UniProt P0AGJ9)
T1 construct: gene tyrS; homodimer
T1 sequence (P0AGJ9 2-424): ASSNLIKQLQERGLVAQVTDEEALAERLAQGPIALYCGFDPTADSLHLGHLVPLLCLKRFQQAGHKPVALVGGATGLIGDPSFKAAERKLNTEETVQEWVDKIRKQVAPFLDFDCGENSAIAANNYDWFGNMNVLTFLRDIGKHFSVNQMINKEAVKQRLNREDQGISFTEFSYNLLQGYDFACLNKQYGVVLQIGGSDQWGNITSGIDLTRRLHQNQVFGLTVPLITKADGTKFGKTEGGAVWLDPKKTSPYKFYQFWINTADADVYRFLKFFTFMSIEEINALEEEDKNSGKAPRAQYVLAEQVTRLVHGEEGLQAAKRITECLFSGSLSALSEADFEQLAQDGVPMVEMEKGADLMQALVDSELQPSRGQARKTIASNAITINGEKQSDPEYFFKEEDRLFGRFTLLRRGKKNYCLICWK
Assay: aminoacylation of […]-tRNA transcript
Assay type: biochemical
Conditions: 1 mM m-Tyr, 50 nM TyrRS, 25 °C; tRNA named tRNA(Tyr) in text, tRNA(Phe) in legend

NC(Cc1cccc(O)c1)C(=O)O (racemic) [m-Tyr, D,L-m-Tyr]
aminoacylation of 32P-tRNA transcript: Aminoacylation of tRNA^Tyr with m-Tyr by E. coli TyrRS was detected in vitro
